Drawing on paper PMC6943437, “Coupling the Antimalarial Cell Penetrating Peptide TP10 to Classical Antimalarial Drugs Primaquine and Chloroquine Produces Strongly Hemolytic Conjugates” (Molecules, 2019), this text covers hemolysis and IC50 for ten compounds.

*1 amine or outer side, *2 acyl side, *3 side chain or, on linkers, in order; H or OH if unused. Where a SMILES comes first, the peptide text is derived from it. Where no end group is shown, it is not given here. The star is where a group is joined. NH(CH2)4NH(7-Cl-4-quinolyl) = Clc1ccc2c(NCCCCN*)ccnc2c1; Suc = O=C(CCC(=O)[*:2])[*:1] Some results are limits rather than exact numbers.

Type in all cases: cell-based
A short description of data set [1]: In vitro hemolytic activity on healthy erythrocytes. Particulars: healthy erythrocytes (hRBC); 10 µM, 1 h, hRBC only; dash with footnote c = hemolysis not detected; read-out: % hemolysis at 10 µM ± SD (n = 3), hRBC. Here is the method:
(§1) For positive and negative controls, 1% Triton X-100 and PBS were added, respectively. After this period, the plates were centrifuged and supernatants transferred to another plate. Supernatant absorbance at 450 nm was assessed in a multi-mode microplate reader (Triad, Dynex Technologies, Chantilly, VA, USA) and values were treated using the following equation (1):(1) % Hemolysis=Abs−Abs(negative control)/Abs(positive control)−Abs(negative control)

A short description of data set [2]: In vitro hemolytic activity on Plasmodium-infected erythrocyte cultures. Conditions: cultures with 3% PiRBC, dash with footnote c = hemolysis not detected, read-out: % hemolysis at 10 µM ± SD (n = 3), PiRBC. The method, then:
as §1

In a further data set the test system is P. falciparum W2. Particulars: P. falciparum W2 (CQ-resistant), 48 h, n = 3. The method, then:
All conjugates and their respective parent CPP (Table 1), were screened in vitro for their antiplasmodial activity, using the CQ-resistant P. falciparum W2 strain. The primaquine analogue to 5a, i.e., conjugate 3 where the CPP is TP10, PQ-C4-TP10 (3a), was also included in the study for comparison.
Synchronized ring-stage P. falciparum parasites (W2 strain) were incubated with test compounds for 48 h in Roswell Park Memorial Institute (RPMI) 1640 medium containing 10% human serum or 0.5% Albumax serum substitute. Parasites were then fixed with 1% formaldehyde in phosphate-buffered saline (PBS), pH 7.4, for […] at RT and labeled with YOYO-1 (1 nM; molecular probes) in 0.1% Triton X-100 in PBS. Parasitemias were determined by flow cytometry, from dot plots (forward scatter versus fluorescence). For 50% inhibitory concentration (IC50) determinations, dose-response studies were performed, with the values normalized to percent control activity, and IC50s were calculated using GraphPad Prism, with data fitted by nonlinear regression.

Regarding `CC[C@H](C)[C@H](NC(=O)[C@H](CCCCNC(=O)CCC(=O)NCCCCNc1ccnc2cc(Cl)ccc12)NC(=O)[C@H](CCCCN)NC(=O)[C@H](C)NC(=O)[C@H](CC(C)C)NC(=O)[C@H](C)NC(=O)[C@H](C)NC(=O)[C@H](CC(C)C)NC(=O)[C@H](C)NC(=O)[C@H](CCCCN)NC(=O)[C@H](CC(C)C)NC(=O)[C@H](CC(N)=O)NC(=O)[C@@H](NC(=O)[C@H](CCCCN)NC(=O)CNC(=O)[C@H](CC(C)C)NC(=O)[C@H](CC(C)C)NC(=O)[C@H](Cc1ccc(O)cc1)NC(=O)CNC(=O)[C@H](C)N)[C@@H](C)CC)C(=O)N[C@@H](CC(C)C)C(N)=O` [compound 13], the hemolysis at 1 h, 10 µM amounted to 50 ± 2% in data set [1] and 41 ± 2% in data set [2].
Taken in the same sequence, the figures for `CC[C@H](C)[C@H](NC(=O)[C@H](CCCCN)NC(=O)[C@H](CCCCN)NC(=O)[C@H](C)NC(=O)[C@H](CC(C)C)NC(=O)[C@H](C)NC(=O)[C@H](C)NC(=O)[C@H](CC(C)C)NC(=O)[C@H](C)NC(=O)[C@H](CCCCN)NC(=O)[C@H](CC(C)C)NC(=O)[C@H](CC(N)=O)NC(=O)[C@@H](NC(=O)[C@H](CCCCN)NC(=O)CNC(=O)[C@H](CC(C)C)NC(=O)[C@H](CC(C)C)NC(=O)[C@H](Cc1ccc(O)cc1)NC(=O)CNC(=O)[C@H](C)N)[C@@H](C)CC)C(=O)N[C@@H](CC(C)C)C(=O)N[C@@H](CSSC[C@H](N)C(=O)NCCCC(C)Nc1cc(OC)cc2cccnc12)C(N)=O` (stereo partly shown) [14′] were 99.7 ± 0.4% and 72 ± 9%.
Taken in the same sequence, the figures for `CC[C@H](C)[C@H](NC(=O)[C@H](CCCCN)NC(=O)[C@H](CCCCN)NC(=O)[C@H](C)NC(=O)[C@H](CC(C)C)NC(=O)[C@H](C)NC(=O)[C@H](C)NC(=O)[C@H](CC(C)C)NC(=O)[C@H](C)NC(=O)[C@H](CCCCN)NC(=O)[C@H](CC(C)C)NC(=O)[C@H](CC(N)=O)NC(=O)[C@@H](NC(=O)[C@H](CCCCN)NC(=O)CNC(=O)[C@H](CC(C)C)NC(=O)[C@H](CC(C)C)NC(=O)[C@H](Cc1ccc(O)cc1)NC(=O)CNC(=O)[C@H](C)NC(=O)CCC(=O)NCCCC(C)Nc1cc(OC)cc2cccnc12)[C@@H](C)CC)C(=O)N[C@@H](CC(C)C)C(N)=O` (stereo partly shown) [3a] were 89 ± 8% and 49 ± 7%.
With `CC[C@H](C)[C@H](NC(=O)[C@H](CC(C)C)NC(=O)[C@H](CCCNC(=N)N)NC(=O)[C@H](CCCCN)NC(=O)[C@H](CCC(N)=O)NC(=O)[C@H](CCCNC(=N)N)NC(=O)[C@@H](NC(=O)[C@H](CC(C)C)NC(=O)[C@H](CCCNC(=N)N)NC(=O)[C@H](CCCCN)NC(=O)[C@H](CCC(N)=O)NC(=O)[C@H](CCCNC(=N)N)NC(=O)[C@@H](NC(=O)[C@H](CC(C)C)NC(=O)[C@H](CCCNC(=N)N)NC(=O)[C@H](CCCCN)NC(=O)[C@H](CCC(N)=O)NC(=O)[C@H](CCCNC(=N)N)NC(=O)CCC(=O)NCCCCNc1ccnc2cc(Cl)ccc12)[C@@H](C)CC)[C@@H](C)CC)C(N)=O` [5d] ({NH(CH2)4NH(7-Cl-4-quinolyl)-Suc}-RQKRLIRQKRLIRQKRLI-NH2), the IC50 (commonly the concentration at which inhibition is half-maximal) with P. falciparum W2 was more than 10 µM.
The compound `CC[C@H](C)[C@H](NC(=O)[C@H](CCCCN)NC(=O)[C@@H](NC(=O)[C@H](CCC(N)=O)NC(=O)[C@@H](N)CCCNC(=N)N)[C@@H](C)CC)C(=O)N[C@@H](Cc1c[nH]c2ccccc12)C(=O)N[C@@H](Cc1ccccc1)C(=O)N[C@@H](CCC(N)=O)C(=O)N[C@@H](CC(N)=O)C(=O)N[C@@H](CCCNC(=N)N)C(=O)N[C@@H](CCCNC(=N)N)C(=O)N[C@@H](CCSC)C(=O)N[C@@H](CCCCN)C(=O)N[C@@H](Cc1c[nH]c2ccccc12)C(=O)N[C@@H](CCCCN)C(=O)N[C@@H](CCCCN)C(N)=O` [Penetratin] registered an IC50 in the data set on P. falciparum W2 of more than 10 µM.
`N=C(N)NCCC[C@H](NC(=O)[C@H](CCCNC(=N)N)NC(=O)[C@H](CCCNC(=N)N)NC(=O)[C@H](CCCNC(=N)N)NC(=O)[C@H](CCCNC(=N)N)NC(=O)[C@H](CCCNC(=N)N)NC(=O)[C@H](CCCNC(=N)N)NC(=O)[C@H](CCCNC(=N)N)NC(=O)[C@H](CCCNC(=N)N)NC(=O)CCC(=O)NCCCCNc1ccnc2cc(Cl)ccc12)C(N)=O` [5h]: the IC50 in the data set on P. falciparum W2 was more than 10 µM.
Still for that read-out and setting: the figure for VRLIVAVRIWRR-NH2 [IDR-1018] is more than 10 µM.
On the same count and under the same terms, the figure for `CC[C@H](C)[C@H](NC(=O)[C@H](CC(C)C)NC(=O)[C@H](Cc1ccccc1)NC(=O)[C@H](Cc1ccccc1)NC(=O)CCC(=O)NCCCCNc1ccnc2cc(Cl)ccc12)C(=O)N1CCC[C@H]1C(=O)N[C@@H](CCCCN)C(=O)NCC(=O)NCC(=O)N[C@@H](CCCNC(=N)N)C(=O)N[C@@H](CCCCN)C(=O)N[C@@H](CCCCN)C(=O)N[C@@H](CCCNC(=N)N)C(=O)N[C@@H](CCCNC(=N)N)C(=O)N[C@@H](CCC(N)=O)C(=O)N[C@@H](CCCNC(=N)N)C(=O)N[C@@H](CCCNC(=N)N)C(=O)N[C@@H](CCCNC(=N)N)C(=O)N1CCC[C@H]1C(=O)N1CCC[C@H]1C(=O)N[C@@H](CCC(N)=O)C(N)=O` [5g] ({NH(CH2)4NH(7-Cl-4-quinolyl)-Suc}-FFLIPKGGRKKRRQRRRPPQ-NH2) is 8.5 µM; for `CC[C@H](C)[C@H](NC(=O)[C@H](CCCCN)NC(=O)[C@@H](NC(=O)[C@H](CCC(N)=O)NC(=O)[C@H](CCCNC(=N)N)NC(=O)CCC(=O)NCCCCNc1ccnc2cc(Cl)ccc12)[C@@H](C)CC)C(=O)N[C@@H](Cc1c[nH]c2ccccc12)C(=O)N[C@@H](Cc1ccccc1)C(=O)N[C@@H](CCC(N)=O)C(=O)N[C@@H](CC(N)=O)C(=O)N[C@@H](CCCNC(=N)N)C(=O)N[C@@H](CCCNC(=N)N)C(=O)N[C@@H](CCSC)C(=O)N[C@@H](CCCCN)C(=O)N[C@@H](Cc1c[nH]c2ccccc12)C(=O)N[C@@H](CCCCN)C(=O)N[C@@H](CCCCN)C(N)=O` [5i] it is more than 10 µM; for `N=C(N)NCCC[C@H](NC(=O)CNC(=O)CCC(=O)NCCCCNc1ccnc2cc(Cl)ccc12)C(=O)N[C@@H](CCCCN)C(=O)N[C@@H](CCCCN)C(=O)N[C@@H](CCCNC(=N)N)C(=O)N[C@@H](CCCNC(=N)N)C(=O)N[C@@H](CCC(N)=O)C(=O)N[C@@H](CCCNC(=N)N)C(=O)N[C@@H](CCCNC(=N)N)C(=O)N[C@@H](CCCNC(=N)N)C(=O)N1CCC[C@H]1C(=O)N1CCC[C@H]1C(=O)N[C@@H](CCC(N)=O)C(N)=O` [5f] it is more than 10 µM.
